# Source: PubChem BioAssay (NCI)
#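 Where inhibition never reached the appropriate level, the endpoint shown equals the highest concentration tested. Otherwise, values were interpolated linearly from a five-concentration, 48-hour dose response in 96-well plates. GI50 is the concentration that inhibits growth by half. TGI is the concentration that stops growth completely.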
# Columns and labels:
# Assay in all cases: NCI anticancer screen, dose series, 48 h
# [1] = tested on: HCT-15 colon
# [2] = tested on: ACHN renal
# [3] = tested on: HS 578T breast
# [4] = tested on: SK-OV-3 ovarian
# [5] = tested on: SNB-75 CNS
# [6] = tested on: MDA-MB-231 breast
# [7] = tested on: NCI-H226 lung
# [8] = tested on: SNB-19 CNS
# [9] = tested on: UACC-257 melanoma
# [10] = tested on: SK-MEL-28 melanoma
# [11] = tested on: KM12 colon
# [12] = tested on: COLO 205 colon
# [13] = tested on: CAKI-1 renal
# [14] = tested on: RPMI-8226 leukemia
# [15] = tested on: TK-10 renal
# [16] = tested on: OVCAR-5 ovarian
# [17] = tested on: OVCAR-8 ovarian
# [18] = tested on: SF-539 CNS
# [19] = tested on: HT29 colon
# [20] = tested on: SK-MEL-2 melanoma
# [21] = tested on: SW-620 colon
# [22] = tested on: IGROV1 ovarian
# [23] = tested on: LOX IMVI melanoma
# [24] = tested on: NCI-H522 lung
# [25] = tested on: MDA-MB-435
# [26] = tested on: HCC-2998 colon
# [27] = tested on: NCI/ADR-RES ovarian
# [28] = tested on: HOP-92 NSCLC
# [29] = tested on: 786-0 renal
# [30] = tested on: OVCAR-3 ovarian
# [31] = tested on: HCT-116 colon
# [32] = tested on: HOP-62 NSCLC
# [33] = tested on: MCF7 breast
# [34] = tested on: BT-549 breast
# [35] = tested on: DU-145 prostate
# [36] = tested on: SR leukemia
# [37] = tested on: NCI-H460 lung
# [38] = tested on: MALME-3M melanoma
# [39] = tested on: T-47D breast
# [40] = tested on: UO-31 renal
# [41] = tested on: M14 melanoma
# [42] = tested on: U251 CNS
# [43] = tested on: SN12C renal
# [44] = tested on: SF-268 CNS
# [45] = tested on: A498 renal
# [46] = tested on: UACC-62 melanoma
# [47] = tested on: K-562 leukemia
# [48] = tested on: HL-60(TB) leukemia
# [49] = tested on: EKVX NSCLC
# [50] = tested on: NCI-H23 lung
# [51] = tested on: OVCAR-4 ovarian
# [52] = tested on: A549 NSCLC
# [53] = tested on: SK-MEL-5 melanoma
# [54] = tested on: CCRF-CEM leukemia
# [55] = tested on: PC-3 prostate
# [56] = tested on: SF-295 CNS
# [57] = tested on: RXF 393 renal
# [58] = tested on: MOLT-4 leukemia
smiles,measurement,setting,value
COc1cc(N2CCN(C(C)C)CC2)ccc1Nc1nc(Nc2ccc(F)cc2C(N)=O)c2cc[nH]c2n1,GI50,[1],0.387 µM
same,TGI,[1],8.16 µM
same,GI50,[2],0.502 µM
same,TGI,[2],5.2 µM
same,GI50,[3],2.67 µM
same,TGI,[3],9.8 µM
same,GI50,[4],0.317 µM
same,TGI,[4],3.03 µM
same,GI50,[5],3.04 µM
same,TGI,[5],6.32 µM
same,GI50,[6],2.98 µM
same,TGI,[6],7.22 µM
same,GI50,[7],1.11 µM
same,TGI,[7],6.65 µM
same,GI50,[8],3.98 µM
same,TGI,[8],11.4 µM
same,GI50,[9],0.194 µM
same,TGI,[9],5.6 µM
same,GI50,[10],3.69 µM
same,TGI,[10],7.59 µM
same,GI50,[11],3.14 µM
same,TGI,[11],7.97 µM
same,GI50,[12],0.0241 µM
same,TGI,[12],0.126 µM
same,GI50,[13],0.911 µM
same,TGI,[13],5.29 µM
same,GI50,[14],3.69 µM
same,TGI,[14],12.5 µM
same,GI50,[15],0.17 µM
same,TGI,[15],4.68 µM
same,GI50,[16],0.245 µM
same,TGI,[16],6.27 µM
same,GI50,[17],0.363 µM
same,TGI,[17],5.43 µM
same,GI50,[18],2.76 µM
same,TGI,[18],6.33 µM
same,GI50,[19],0.0208 µM
same,TGI,[19],2.88 µM
same,GI50,[20],0.163 µM
same,TGI,[20],1.77 µM
same,GI50,[21],0.0905 µM
same,TGI,[21],4.17 µM
same,GI50,[22],0.392 µM
same,TGI,[22],6.94 µM
same,GI50,[23],0.124 µM
same,TGI,[23],4.63 µM
same,GI50,[24],2.8 µM
same,TGI,[24],6.42 µM
same,GI50,[25],0.242 µM
same,TGI,[25],5.45 µM
same,GI50,[26],0.558 µM
same,TGI,[26],5.63 µM
same,GI50,[27],3.76 µM
same,TGI,[27],11.6 µM
same,GI50,[28],0.0148 µM
same,TGI,[28],0.687 µM
same,GI50,[29],1.33 µM
same,TGI,[29],5.45 µM
same,GI50,[30],3.08 µM
same,TGI,[30],6.43 µM
same,GI50,[31],0.119 µM
same,TGI,[31],3.6 µM
same,GI50,[32],0.668 µM
same,TGI,[32],5.26 µM
same,GI50,[33],0.0154 µM
same,TGI,[33],4.07 µM
same,GI50,[34],3.28 µM
same,TGI,[34],6.93 µM
same,GI50,[35],0.234 µM
same,TGI,[35],4.63 µM
same,GI50,[36],0.0145 µM
same,TGI,[36],10.1 µM
same,GI50,[37],0.0985 µM
same,TGI,[37],3.72 µM
same,GI50,[38],0.228 µM
same,TGI,[38],5.22 µM
same,GI50,[39],3.49 µM
same,TGI,[39],8.2 µM
same,GI50,[40],0.996 µM
same,TGI,[40],5.28 µM
same,GI50,[41],0.18 µM
same,TGI,[41],4.07 µM
same,GI50,[42],2.72 µM
same,TGI,[42],6.13 µM
same,GI50,[43],2.54 µM
same,TGI,[43],5.9 µM
same,GI50,[44],3.36 µM
same,TGI,[44],7.92 µM
same,GI50,[45],0.165 µM
same,TGI,[45],3.65 µM
same,GI50,[46],2.53 µM
same,TGI,[46],6.42 µM
same,GI50,[47],3.31 µM
same,TGI,[47],15.2 µM
same,GI50,[48],0.0594 µM
same,TGI,[48],4.7 µM
same,GI50,[49],0.48 µM
same,TGI,[49],7.19 µM
same,GI50,[50],0.304 µM
same,TGI,[50],6.65 µM
same,GI50,[51],2.98 µM
same,TGI,[51],7.04 µM
same,GI50,[52],0.121 µM
same,TGI,[52],4.17 µM
same,GI50,[53],0.747 µM
same,TGI,[53],5.28 µM
same,GI50,[54],0.277 µM
same,TGI,[54],21.3 µM
same,GI50,[55],3.75 µM
same,TGI,[55],12.9 µM
same,GI50,[56],3.99 µM
same,TGI,[56],10.3 µM
same,GI50,[57],0.857 µM
same,TGI,[57],5.27 µM
same,GI50,[58],5.24 µM
same,TGI,[58],15.4 µM
